# Paper PMC9501129 (Pharmaceutics, 2022)
# Read-outs that look alike come from different tables or passages of the source.
# What was measured:
# [1] = Amniotic fluid drug concentration in mouse pregnancy model (HPLC-MSMS); format: in vivo, C57BL/6J mice; details: pregnant mice; for Kp at 1 h / concentration at 1 h: female, C57BL/6J, mouse, oral; for Kp at 1 h: amniotic fluid / maternal plasma; for concentration at 1 h: amniotic fluid
# Description: All animal experiments were approved by the University Health Network Animal Use Committee (protocol #2575) and performed according to the policies and guidelines of the Canadian Council on Animal Care. C57BL/6J mice bred in-house (original breeders from Jackson Laboratory RRID:IMSR JAX:000664) were maintained under a 12-h light/dark cycle, with ad libitum access to food and water. Animals were acclimated to their surroundings for 1 week prior to experiment initiation. Males were isolated for 7 days prior to mating. Female mice (7–12 weeks of age) were mated with males at a ratio of 2:1. Presence of vaginal plug was denoted as gestational day 0.5 (GD0.5). Pregnancy was confirmed by weight gain of >1.5 g on GD9.5 and >3 g on GD13.5. […] The equivalent mouse mg/kg dose was calculated based on the human dose divided by an assumed average human weight of 60 kg. […] On GD15.5, mice underwent saphenous bleed 24 h after the GD14.5 dose administration (trough). Immediately after the saphenous bleed, mice were dosed with the appropriate drug regimen and sacrificed 1 h post-treatment (peak), at which time blood was collected by cardiac puncture and amniotic fluid was collected by dissecting the uterus, puncturing the amniotic sac, and draining the amniotic fluid into a sterile dish. Amniotic fluid was pooled for the entire litter. Samples from 2 dams per arm were analyzed for drug levels.
# Briefly, 50 μL of plasma or amniotic fluid was spiked with internal standard (ritonavir-d6) followed by protein precipitation with acetonitrile and filtration. Filtrates were diluted 1:9 with ammonium acetate buffer (10 mM) and analyzed by the HPLC-MSMS system, consisting of a Shimadzu Nexera XR high-performance liquid chromatograph (Shimadzu, Columbia, MD, USA) coupled with a SCIEX API 4500 QqQ mass spectrometer (SCIEX, Concord, ON, Canada). Chromatographic separation by Mobile Phase A (10% methanol, 5% 50 mM ammonium acetate, 85% 0.25% acetic acid pH 3.6 ± 0.2) and Mobile Phase B (90% methanol, 5% 50 mM ammonium acetate, 5% 0.25% acetic acid pH 6.6 ± 0.2) was performed under linear gradient conditions (flow rate 0.7 mL/min) on a reverse-phase Zorbax XDB-C18 column (Agilent Technologies, Santa Clara, CA, USA) maintained at 40 °C. […] HPLC-MSMS data were acquired using Analyst (v 1.6.3, SCIEX, Concord, ON, Canada) and analyzed with MultiQuant software (v 3.0.3, SCIEX, Concord, ON, Canada). […] Positive controls spiked in-house and prepared by an external laboratory during a sample exchange program were included in all runs.
# [2] = cited from earlier work
# [3] = cited from earlier work; remark: listed apart in the source
# [4] = CAB 5 mg/kg (10×) oral gavage once daily GD11.5-GD15.5 with TDF 50 mg/kg + FTC 33.3 mg/kg, mean (SD), n=2
# [5] = of 13 pregnant women living with HIV (4 oral CAB, 9 LA CAB)
# [6] = ART-naïve, Switch study, ART-experienced, virologically suppressed, CAB/rilpivirin LA every 4 weeks, initial injection 600 mg IM
# [7] = ART-naïve, Switch study, ART-experienced, virologically suppressed, CAB/rilpivirin LA every 4 weeks, oral 30 mg once daily
# [8] = Healthy Participants (Females), 30 mg oral phase, 600 mg LA CAB every 12 weeks, 1st injection
# [9] = Healthy Participants (Females), 30 mg oral phase, 600 mg LA CAB every 12 weeks, 2nd injection
# [10] = Healthy Participants (Females), 30 mg oral phase, 600 mg LA CAB every 12 weeks, 3rd injection
# [11] = Healthy Participants (Females), 30 mg oral phase, 600 mg LA CAB every 12 weeks, 4th injection
# [12] = Healthy Participants (Females), 30 mg oral phase, 600 mg LA CAB every 12 weeks, 5th injection
# [13] = Healthy Participants (Females), 30 mg oral phase, 800 mg LA CAB every 12 weeks, 1st injection
# [14] = Healthy Participants (Females), 30 mg oral phase, 800 mg LA CAB every 12 weeks, 2nd injection
# [15] = Healthy Participants (Females), 30 mg oral phase, 800 mg LA CAB every 12 weeks, 3rd injection
# [16] = Healthy Participants (Males), 30 mg oral phase, 600 mg LA CAB every 12 weeks, 1st injection
# [17] = Healthy Participants (Males), 30 mg oral phase, 600 mg LA CAB every 12 weeks, 2nd injection
# [18] = Healthy Participants (Males), 30 mg oral phase, 600 mg LA CAB every 12 weeks, 3rd injection
# [19] = Healthy Participants (Males), 30 mg oral phase, 600 mg LA CAB every 12 weeks, 4th injection
# [20] = Healthy Participants (Males), 30 mg oral phase, 600 mg LA CAB every 12 weeks, 5th injection
# [21] = Healthy Participants (Males), 30 mg oral phase, 800 mg LA CAB every 12 weeks, 1st injection, ref 28
# [22] = Healthy Participants (Males), 30 mg oral phase, 800 mg LA CAB every 12 weeks, 1st injection, ref 29
smiles,measurement,setting,value
"C[C@H]1CO[C@@H]2Cn3cc(C(=O)NCc4ccc(F)cc4F)c(=O)c(O)c3C(=O)N12 [CAB, cabotegravir]",Kp at 1 h,"[1]; 1× to 10× CAB, 1 h after dosing, read-out: Ratio of drug in the amniotic fluid to that in maternal plasma",0.034 to 0.055
same,Kp at 1 h,"[1]; CAB 0.5 mg/kg (1×) oral gavage once daily GD11.5-GD15.5 with TDF 50 mg/kg + FTC 33.3 mg/kg, mean (SD), n=2, read-out: Amniotic: Maternal Plasma Ratio 1 h",0.05
same,Kp at 1 h,"[1]; CAB 1.5 mg/kg (3×) oral gavage once daily GD11.5-GD15.5 with TDF 50 mg/kg + FTC 33.3 mg/kg, mean (SD), n=2, read-out: Amniotic: Maternal Plasma Ratio 1 h",0.055
same,Kp at 1 h,"[1]; CAB 5 mg/kg (10×) oral gavage once daily GD11.5-GD15.5 with TDF 50 mg/kg + FTC 33.3 mg/kg, mean (SD), n=2, read-out: Amniotic: Maternal Plasma Ratio 1 h",0.034
same,concentration at 1 h,"[1]; CAB 0.5 mg/kg (1×) oral gavage once daily GD11.5-GD15.5 with TDF 50 mg/kg + FTC 33.3 mg/kg, mean (SD), n=2",44.9 ng/mL
same,concentration at 1 h,"[1]; CAB 1.5 mg/kg (3×) oral gavage once daily GD11.5-GD15.5 with TDF 50 mg/kg + FTC 33.3 mg/kg, mean (SD), n=2",59.9 ng/mL
same,concentration at 1 h,[1]; [4],112 ng/mL
same,Amniotic Fluid 1 h,[1]; [4],112.4 (33.6) ng/mL
same,Birth defects,"[2]; 13 pregnant women living with HIV (4 oral CAB, 9 LA CAB)",No cases of birth defects were reported
same,Women with live births,[2]; [5],Four
same,Women with miscarriage within the first nine weeks of gestation,[2]; [5],four
same,Human Plasma Levels Cmax,[3]; [6],8000 ng/mL
same,Human Plasma Levels Cmin,[3]; [6],1500 ng/mL
same,Human Plasma Levels Cmin,"[3]; ART-naïve, Switch study, ART-experienced, virologically suppressed, CAB/rilpivirin LA every 4 weeks, monthly injection 400 mg IM",2800 ng/mL
same,Human Plasma Levels Cmax,[3]; [7],8000 ng/mL
same,Human Plasma Levels Cmin,[3]; [7],4600 ng/mL
same,Human Plasma Levels Cmax,[3]; [8],1580 ng/mL
same,Human Plasma Levels Cmin,[3]; [8],1330 ng/mL
same,Human Plasma Levels Cmax,[3]; [9],2960 ng/mL
same,Human Plasma Levels Cmin,[3]; [9],1820 ng/mL
same,Human Plasma Levels Cmax,[3]; [10],3460 ng/mL
same,Human Plasma Levels Cmin,[3]; [10],2040 ng/mL
same,Human Plasma Levels Cmax,[3]; [11],3330 ng/mL
same,Human Plasma Levels Cmin,[3]; [11],2060 ng/mL
same,Human Plasma Levels Cmax,[3]; [12],3660 ng/mL
same,Human Plasma Levels Cmin,[3]; [12],2030 ng/mL
same,Human Plasma Levels Cmax,[3]; [13],1890 ng/mL
same,Human Plasma Levels Cmin,[3]; [13],950 ng/mL
same,Human Plasma Levels Cmax,[3]; [14],2290 ng/mL
same,Human Plasma Levels Cmin,[3]; [14],1350 ng/mL
same,Human Plasma Levels Cmax,[3]; [15],3010 ng/mL
same,Human Plasma Levels Cmin,[3]; [15],1650 ng/mL
same,Human Plasma Levels Cmax,[3]; [16],2510 ng/mL
same,Human Plasma Levels Cmin,[3]; [16],1790 ng/mL
same,Human Plasma Levels Cmax,[3]; [17],3900 ng/mL
same,Human Plasma Levels Cmin,[3]; [17],1290 ng/mL
same,Human Plasma Levels Cmax,[3]; [18],2960 ng/mL
same,Human Plasma Levels Cmin,[3]; [18],1110 ng/mL
same,Human Plasma Levels Cmax,[3]; [19],2960 ng/mL
same,Human Plasma Levels Cmin,[3]; [19],1460 ng/mL
same,Human Plasma Levels Cmax,[3]; [20],3820 ng/mL
same,Human Plasma Levels Cmin,[3]; [20],1680 ng/mL
same,Human Plasma Levels Cmax,[3]; [21],4260 ng/mL
same,Human Plasma Levels Cmin,[3]; [21],302 ng/mL
same,Human Plasma Levels Cmax,[3]; [22],2670 ng/mL
same,Human Plasma Levels Cmin,[3]; [22],490 ng/mL
same,Human Plasma Levels Cmax,"[3]; Healthy Participants (Males), 30 mg oral phase, 800 mg LA CAB every 12 weeks, 2nd injection, ref 28",5220 ng/mL
